Values joined by “and” are separate entries in the source; they are usually repeats but may differ in a detail not shown here. Identical values can stand only once.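 Cells were grown in 96-well plates and exposed to each compound for 48 hours at five concentrations; endpoints were interpolated linearly between bracketing concentrations, or set to the highest concentration if not reached. Here, GI50 denotes the concentration required for 50% inhibition of growth. TGI marks complete inhibition of growth.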 Some results are limits rather than exact numbers.

What all share (assay): NCI anticancer screen, dose series, 48 h
Assay [1] has as its system HCT-15 colon.
In assay [2] the test system is HS 578T breast.
In assay [3] the test system is K-562 leukemia.
The test system of assay [4] is MCF7 breast.
For assay [5], the system named is NCI-H23 lung.
Assay [6] relates to SK-MEL-28 melanoma.
In assay [7] the test system is SN12C renal.
The test system of assay [8] is SNB-19 CNS.
The subject of assay [9] is U251 CNS.
Assay [10] concerns UO-31 renal.

For the compound `CCNC(=O)Oc1ccc(/C(=C(\C)c2ccc(Cl)cc2)c2ccc(OCCN(CC)CC)cc2)cc1`, the GI50 in assay [1] was 2.21 µM; in assay [2], 3.72 µM; in [3], 2.18 µM; in assay [4] it was 1.13 µM; in assay [5], 7.92 µM; in assay [6], 1.74 µM. For the same compound, the GI50 in [7] is 4.42 µM; in assay [8] it was 3.13 µM; in assay [9], 4.26 µM; in assay [10], 1.54 µM. For the same compound, the TGI in assay [1] came to 7.04 µM; in assay [2], 16.5 µM; in assay [3], 5.37 µM; in assay [4] it was 10.9 µM; in [5], 22.1 µM; in assay [6], 3.52 µM. Also, the TGI in [7] worked out at 16.1 µM; in assay [8], 8.45 µM; in assay [9], 13.5 µM; in assay [10], 3.62 µM.
In the case of `C=C1C[C@@H](O)[C@@H](Br)C(C)(C)[C@]12CCC(C)(Br)C(Cl)C2` (stereo not given in full), the GI50 in [1] was 23.7 µM; in assay [2], 29.9 µM; in assay [3] it was 19.2 µM; in assay [4], 16.8 µM; in assay [5], 18.7 µM; in assay [6], 18 µM. Further, the GI50 was 16.5 µM in assay [7], 17.6 µM in [8], 17.7 µM in [9] and 25.4 µM in assay [10]. Besides, the TGI was > 50 µM and 52.4 µM in assay [1]; > 50 µM and 96.4 µM in [2]; > 50 µM and 42.4 µM in assay [3]; > 50 µM and 31.1 µM in assay [4]; > 50 µM and 37.5 µM in assay [5]; > 50 µM and 36.8 µM in assay [6]. Also, the TGI in assay [7] is > 50 µM and 31.3 µM; in assay [8], > 50 µM and 33.2 µM; in assay [9], > 50 µM and 31.5 µM; in [10], > 50 µM and 43.7 µM.
As for `C[C@@H]1CC[C@H]2[C@@H](C)C(OC/C=C/COC3O[C@@H]4O[C@@]5(C)CC[C@H]6[C@H](C)CC[C@@H]([C@H]3C)[C@@]46OO5)O[C@@H]3O[C@@]4(C)CC[C@@H]1[C@]32OO4` (stereo not given in full), the GI50 in assay [1] is less than 0.01 µM; in assay [2] it was 0.0311 µM; in assay [3] it was less than 0.0201 µM; in assay [4], less than 0.01 µM; in [5], less than 0.01 µM; in assay [6], 1.32 µM. The GI50 was less than 0.0147 µM in assay [7], 5.19 µM in [8], less than 0.01 µM in assay [9] and 0.152 µM in assay [10]. Besides, the TGI in assay [1] was greater than 33 µM; in assay [2], greater than 74.9 µM; in [3], greater than 41.6 µM; in assay [4] it was 20.1 µM; in [5] it was 18.5 µM; in assay [6] it was greater than 100 µM. Moreover, the TGI in assay [7] was 2.06 µM; in assay [8], greater than 100 µM; in assay [9] it was greater than 20.9 µM; in assay [10], greater than 92.9 µM.

Values taken from PubChem BioAssay (NCI).
